Data from ChEMBL document CHEMBL3797063, “Evaluation of N-substituent structural variations in opioid receptor profile of LP1” (Bioorg Med Chem, 2016).
Active and inactive are the calls of the source. The rule behind the calls is not given here.

Legend:
[1] = target: Mu-type opioid receptor (Rattus norvegicus, UniProt P33535); experiment: Displacement of [3H]-DPN from rat MOR expressed in EE-HEK293 cell membranes by liquid scintillation counting
[2] = target: Delta-type opioid receptor (Rattus norvegicus, UniProt P33533); experiment: Displacement of [3H]-DPN from rat DOR expressed in EE-HEK293 cell membranes by liquid scintillation counting
Sequence of Delta-type opioid receptor (Rattus norvegicus, UniProt P33533) (P33533 whole entry): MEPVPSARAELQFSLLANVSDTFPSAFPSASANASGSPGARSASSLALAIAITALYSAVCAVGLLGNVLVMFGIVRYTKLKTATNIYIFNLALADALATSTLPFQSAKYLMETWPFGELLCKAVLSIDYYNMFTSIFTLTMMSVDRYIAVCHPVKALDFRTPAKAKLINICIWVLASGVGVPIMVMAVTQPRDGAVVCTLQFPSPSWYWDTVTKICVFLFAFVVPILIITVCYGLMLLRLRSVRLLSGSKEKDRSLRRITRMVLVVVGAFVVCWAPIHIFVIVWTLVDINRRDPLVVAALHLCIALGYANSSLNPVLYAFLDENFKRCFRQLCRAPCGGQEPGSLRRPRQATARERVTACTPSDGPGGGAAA

[3] = target: T1, Kappa-type opioid receptor (Homo sapiens, UniProt P41145); experiment: Displacement of [3H]-DPN from human KOR expressed in EE-HEK293 cell membranes by liquid scintillation counting
T1 sequence (P41145 whole entry): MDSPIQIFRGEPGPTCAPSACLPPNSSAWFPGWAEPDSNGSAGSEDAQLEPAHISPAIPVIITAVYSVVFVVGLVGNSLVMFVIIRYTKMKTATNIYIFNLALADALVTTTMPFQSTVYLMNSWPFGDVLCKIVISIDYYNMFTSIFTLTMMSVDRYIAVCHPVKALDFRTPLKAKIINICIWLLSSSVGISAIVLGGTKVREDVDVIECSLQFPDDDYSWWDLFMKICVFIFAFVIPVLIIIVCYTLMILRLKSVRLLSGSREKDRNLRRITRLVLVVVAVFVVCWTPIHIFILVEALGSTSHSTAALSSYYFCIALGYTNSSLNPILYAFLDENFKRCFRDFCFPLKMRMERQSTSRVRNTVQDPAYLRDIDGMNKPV

[4] = organism: Rattus norvegicus; experiment: Selectivity index, ratio of Ki for rat DOR to Ki for rat MOR
[5] = Selectivity index, ratio of Ki for human KOR to Ki for rat MOR
[6] = target: T2, Mu-type opioid receptor (Cavia porcellus, UniProt P97266); experiment: Agonist activity at MOR in Dunkin-Hartley guinea pig ileum assessed as inhibition of EFS-induced contractions incubated for 60 mins
T2 sequence (P97266 whole entry): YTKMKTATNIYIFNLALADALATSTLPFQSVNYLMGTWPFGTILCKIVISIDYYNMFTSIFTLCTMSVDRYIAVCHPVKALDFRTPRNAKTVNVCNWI

[7] = target: T3, Delta-type opioid receptor (Mus musculus, UniProt P32300); experiment: Antagonist activity at DOR in CD1 mouse vas deferens assessed as reduction in DPDPE-induced inhibition of EFS-evoked contractions incubated for 60 mins; assay type: tissue-based; conditions: read-out: pA2 (converted)
T3 sequence (P32300 whole entry): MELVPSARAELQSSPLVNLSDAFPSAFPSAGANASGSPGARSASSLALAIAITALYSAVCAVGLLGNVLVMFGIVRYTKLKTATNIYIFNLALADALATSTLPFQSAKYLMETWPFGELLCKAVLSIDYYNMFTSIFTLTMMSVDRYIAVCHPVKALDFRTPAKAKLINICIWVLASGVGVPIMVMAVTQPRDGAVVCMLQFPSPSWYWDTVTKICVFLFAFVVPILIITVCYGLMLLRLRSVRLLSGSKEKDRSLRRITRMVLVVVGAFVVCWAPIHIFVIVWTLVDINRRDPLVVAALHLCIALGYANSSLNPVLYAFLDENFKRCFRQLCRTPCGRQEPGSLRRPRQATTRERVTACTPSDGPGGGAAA

[8] = target: Delta-type opioid receptor (Mus musculus) (UniProt P32300); experiment: (§1) Agonist activity at DOR in CD1 mouse vas deferens assessed as inhibition of EFS-induced contractions incubated for 60 mins; assay type: tissue-based
Sequence of Delta-type opioid receptor (Mus musculus) (P32300 whole entry): as above

[9] = target: T2, Mu-type opioid receptor; experiment: Antagonist activity at MOR in Dunkin-Hartley guinea pig ileum assessed as reduction in DAMGO-induced inhibition of EFS-induced contractions incubated for 60 mins; assay type: tissue-based; conditions: read-out: pA2 (converted)
[10] = target: T1, Kappa-type opioid receptor; experiment: Activity at human KOR expressed in EE-HEK293 cells assessed as pEC50 for effect on (-)U50,488H-induced response (reference value: […] +/- […]); assay type: cell-based
[11] = system: Mus musculus; experiment: Effect on basal tail flick latencies in Swiss […] mouse at 1 to 15 mg/kg, sc during 90 mins by tail flick test; assay type: ADME, organism-based; conditions: in vivo, 1.5 h
[12] = system: Mus musculus; experiment: Reduction in morphine-induced antinociceptive effect in sc dosed Swiss […] mouse assessed as tail flick latencies dosed 45 mins before 5 mg/kg, sc morphine injection by tail flick test; assay type: ADME, organism-based; conditions: in vivo, 0.75 h
[13] = target: T3, Delta-type opioid receptor; experiment: as §1; assay type: tissue-based

Sequence of Mu-type opioid receptor (Rattus norvegicus, UniProt P33535) (P33535 whole entry): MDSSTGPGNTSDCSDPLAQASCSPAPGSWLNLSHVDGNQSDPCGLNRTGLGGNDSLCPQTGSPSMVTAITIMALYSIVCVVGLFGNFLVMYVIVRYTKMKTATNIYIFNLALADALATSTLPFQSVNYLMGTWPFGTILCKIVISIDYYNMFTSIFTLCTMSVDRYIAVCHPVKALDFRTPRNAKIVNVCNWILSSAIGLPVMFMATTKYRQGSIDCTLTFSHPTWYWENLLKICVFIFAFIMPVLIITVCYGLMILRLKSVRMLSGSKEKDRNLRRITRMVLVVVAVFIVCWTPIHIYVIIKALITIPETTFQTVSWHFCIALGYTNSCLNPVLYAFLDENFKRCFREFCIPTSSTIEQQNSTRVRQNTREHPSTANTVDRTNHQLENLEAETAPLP

Row | SMILES | Ki [1] | Ki [2] | Ki [3] | Ratio Ki [4] | Ratio Ki [5] | EC50 [6] | Kb [7] | Activity [8] | Kb [9] | EC50 [10] | Activity [11] | AD50 [12] | Activity [12] | EC50 [13]
1 | C[C@H]1[C@H]2Cc3ccc(O)cc3[C@]1(C)CCN2CCC(=O)Nc1cccc2ncccc12 | 3190 nM | 310 nM | 1540 nM | 0.1 | 0.5 |  |  |  |  |  |  |  |  | 
2 | C[C@H]1[C@H]2Cc3ccc(O)cc3[C@]1(C)CCN2CCC(=O)Nc1cnc2ccccc2c1 | 1190 nM | 740 nM | 6470 nM | 0.62 | 5.4 |  |  |  |  |  |  |  |  | 
3 | C[C@@H](NC(=O)[C@@H](N)Cc1ccc(O)cc1)C(=O)NCC(=O)N(C)[C@@H](Cc1ccccc1)C(=O)NCCO [DAMGO] |  |  |  |  |  | 158 nM |  |  |  |  |  |  |  | 
4 | C[C@H]1[C@H]2Cc3ccc(O)cc3[C@]1(C)CCN2CCC(=O)Nc1cccc2ccccc12 | 38 nM | 210 nM | 800 nM | 5.5 | 21.1 |  | 25.1 nM | inactive | 2.51 nM | 10000 nM | Non-toxic | 2 mg/kg | Dose-dependent effect | 
5 | C[C@H]1[C@H]2Cc3ccc(O)cc3[C@]1(C)CCN2CCC(=O)Nc1cccc2cccnc12 | 3410 nM | 540 nM | 230 nM | 0.16 | 0.07 |  |  |  |  |  |  |  |  | 
6 | C[C@H]1[C@H]2Cc3ccc(O)cc3[C@]1(C)CCN2CCC(=O)Nc1ccccc1 |  |  |  | 0.67 | 153 | 794 nM | 63.1 nM | inactive |  |  |  |  |  | 
7 | C[C@H]1[C@H]2Cc3ccc(O)cc3[C@]1(C)CCN2CCC(=O)Nc1ccc2ncccc2c1 | 4560 nM | 330 nM | 4400 nM | 0.07 | 1 |  |  |  |  |  |  |  |  | 
8 | C[C@H]1[C@H]2Cc3ccc(O)cc3[C@]1(C)CCN2CCC(=O)Nc1cccc2cnccc12 | 50 nM | 180 nM | 2900 nM | 3.6 | 58 | 20000 nM |  |  |  |  |  |  |  | 158000 nM
